Results: patent publication US12552783B2, “Modulators of proteolysis and associated methods of use” (Arvinas Operations, Inc., priority 2018, dated 2026)

Target: KRas (Homo sapiens, UniProt P01116, G12C)
Assay: KRas degradation in SW1573 cells by Western blot, normalized to GAPDH (data of Table 14)
Format: cell-based
Details: SW1573 cells
Outline: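 SW1573 cells, homozygous for the KRas G12C mutation and maintained in DMEM with 10% FBS and 1% penicillin-streptomycin, were seeded in 12-well plates, allowed to attach overnight at 37° C. under 5% CO2, then serum-starved for 24 hours before compound exposure. KRas levels were measured by Western blot, normalized to GAPDH, and compared with DMSO controls to give percent degradation, DC50 and Dmax.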

Compound	Dmax [%]	Percent Degradation at Indicated Concentration (μM) (0.1 μM)	Percent Degradation at Indicated Concentration (μM) (0.3 μM)	Percent Degradation at Indicated Concentration (μM) (1 μM)	Percent Degradation at Indicated Concentration (μM) (0.03 μM)	Percent Degradation at Indicated Concentration (μM) (3 μM)
C=CC(=O)N1CCN(c2nc(OC[C@@H]3C[C@@H](OCCOCCOCCOc4ccc5c(c4)C(=O)N(C4CCC(=O)NC4=O)C5=O)CN3C)nc3c2CCN(c2cccc4ccccc24)C3)C[C@@H]1CC#N (stereo partly drawn) [compound 504, 2-((2S)-1-acryloyl-4-(2-(((2S,4R)-4-(2-(2-(2-((2-(2,6-dioxopiperidin-3-yl)-1,3-dioxoisoindolin-5-yl)oxy)ethoxy)ethoxy)ethoxy)-1-methylpyrrolidin-2-yl)methoxy)-7-(naphthalen-1-yl)-5,6,7,8-tetrahydropyrido[3,4-d]pyrimidin-4-yl)piperazin-2-yl)acetonitrile]	≥ 70	B (35 < B < 70)	A (A > 70)	C (Percent Degradation: C ≤ 35)	–	–
C=CC(=O)N1CCN(c2nc(OC[C@@H]3C[C@@H](OCCOCCOCCOCCOCCOc4ccc5c(c4)C(=O)N(C4CCC(=O)NC4=O)C5=O)CN3C)nc3c2CCN(c2cccc4ccccc24)C3)C[C@@H]1CC#N (stereo partly drawn) [compound 505, 2-((2S)-1-acryloyl-4-(2-(((2S,4R)-4-((14-((2-(2,6-dioxopiperidin-3-yl)-1,3-dioxoisoindolin-5-yl)oxy)-3,6,9,12-tetraoxatetradecyl)oxy)-1-methylpyrrolidin-2-yl)methoxy)-7-(naphthalen-1-yl)-5,6,7,8-tetrahydropyrido[3,4-d]pyrimidin-4-yl)piperazin-2-yl)acetonitrile]	–	C (Percent Degradation: C ≤ 35)	C (Percent Degradation: C ≤ 35)	–	C (Percent Degradation: C ≤ 35)	–
C[C@H](CN1CCC(OCCOCCOCCOCCOCCOc2ccc3c(c2)C(=O)N(C2CCC(=O)NC2=O)C3=O)CC1)Oc1nc(N2CCN(C(=O)C(O)O)CC2)c2cc(Cl)c(-c3cc(O)cc4ccccc34)c(F)c2n1 (stereo partly drawn) [compound 515, 5-((14-((1-((2R)-2-((6-chloro-4-(4-(2,2-dihydroxyacetyl)piperazin-1-yl)-8-fluoro-7-(3-hydroxynaphthalen-1-yl)quinazolin-2-yl)oxy)propyl)piperidin-4-yl)oxy)-3,6,9,12-tetraoxatetradecyl)oxy)-2-(2,6-dioxopiperidin-3-yl)isoindoline-1,3-dione]	–	–	C (Percent Degradation: C ≤ 35)	C (Percent Degradation: C ≤ 35)	–	C (Percent Degradation: C ≤ 35)
C=CC(=O)N1CCN(c2nc(OC[C@@H]3C[C@@H](OCCOCCNc4cccc5c4C(=O)N(C4CCC(=O)NC4=O)C5=O)CN3C)nc3c2CCN(c2cccc4ccccc24)C3)C[C@@H]1CC#N (stereo partly drawn) [compound 516, 2-((2S)-1-acryloyl-4-(2-(((2S,4R)-4-(2-(2-((2-(2,6-dioxopiperidin-3-yl)-1,3-dioxoisoindolin-4-yl)amino)ethoxy)ethoxy)-1-methylpyrrolidin-2-yl)methoxy)-7-(naphthalen-1-yl)-5,6,7,8-tetrahydropyrido[3,4-d]pyrimidin-4-yl)piperazin-2-yl)acetonitrile]	35 to 70	C (Percent Degradation: C ≤ 35)	B (35 < B < 70)	B (35 < B < 70)	–	–
C=CC(=O)N1CCN(c2nc(OC[C@@H]3C[C@@H](OCCOCCOCCOCCNc4cccc5c4C(=O)N(C4CCC(=O)NC4=O)C5=O)CN3C)nc3c2CCN(c2cccc4ccccc24)C3)C[C@@H]1CC#N (stereo partly drawn) [compound 518, 2-((2S)-1-acryloyl-4-(2-(((2S,4R)-4-(2-(2-(2-(2-((2-(2,6-dioxopiperidin-3-yl)-1,3-dioxoisoindolin-4-yl)amino)ethoxy)ethoxy)ethoxy)ethoxy)-1-methylpyrrolidin-2-yl)methoxy)-7-(naphthalen-1-yl)-5,6,7,8-tetrahydropyrido[3,4-d]pyrimidin-4-yl)piperazin-2-yl)acetonitrile]	≥ 70	B (35 < B < 70)	A (A > 70)	C (Percent Degradation: C ≤ 35)	–	–
C=CC(=O)N1CCN(c2nc(OC[C@@H]3C[C@@H](OCCOCCOCCOCCOCCNc4cccc5c4C(=O)N(C4CCC(=O)NC4=O)C5=O)CN3C)nc3c2CCN(c2cccc4ccccc24)C3)C[C@@H]1CC#N (stereo partly drawn) [compound 519, 2-((2S)-1-acryloyl-4-(2-(((2S,4R)-4-((14-((2-(2,6-dioxopiperidin-3-yl)-1,3-dioxoisoindolin-4-yl)amino)-3,6,9,12-tetraoxatetradecyl)oxy)-1-methylpyrrolidin-2-yl)methoxy)-7-(naphthalen-1-yl)-5,6,7,8-tetrahydropyrido[3,4-d]pyrimidin-4-yl)piperazin-2-yl)acetonitrile]	≥ 70	B (35 < B < 70)	A (A > 70)	C (Percent Degradation: C ≤ 35)	–	–
C=CC(=O)N1CCN(c2nc(O[C@H](C)CN3CCC(OCCOc4cc([C@@H](C(=O)N5C[C@H](O)C[C@H]5C(=O)N[C@@H](C)c5ccc(-c6scnc6C)cc5)C(C)C)on4)CC3)nc3c(F)c(-c4cc(O)cc5ccccc45)c(Cl)cc23)CC1 [compound 524, (2S,4R)-1-((2S)-2-(3-(2-((1-((2R)-2-((4-(4-acryloylpiperazin-1-yl)-6-chloro-8-fluoro-7-(3-hydroxynaphthalen-1-yl)quinazolin-2-yl)oxy)propyl)piperidin-4-yl)oxy)ethoxy)isoxazol-5-yl)-3-methylbutanoyl)-4-hydroxy-N-((S)-1-(4-(4-methylthiazol-5-yl)phenyl)ethyl)pyrrolidine-2-carboxamide]	–	C (Percent Degradation: C ≤ 35)	C (Percent Degradation: C ≤ 35)	–	C (Percent Degradation: C ≤ 35)	–
C=CC(=O)N1CCN(c2nc(O[C@H](C)CN3CCC(OCCOc4cc([C@H](C(=O)N5C[C@H](O)C[C@H]5C(=O)N[C@@H](C)c5ccc(-c6scnc6C)cc5)C(C)C)on4)CC3)nc3c(F)c(-c4cc(O)cc5ccccc45)c(Cl)cc23)CC1 [compound 525, (2S,4R)-1-((2R)-2-(3-(2-((1-((2R)-2-((4-(4-acryloylpiperazin-1-yl)-6-chloro-8-fluoro-7-(3-hydroxynaphthalen-1-yl)quinazolin-2-yl)oxy)propyl)piperidin-4-yl)oxy)ethoxy)isoxazol-5-yl)-3-methylbutanoyl)-4-hydroxy-N-((S)-1-(4-(4-methylthiazol-5-yl)phenyl)ethyl)pyrrolidine-2-carboxamide]	–	C (Percent Degradation: C ≤ 35)	C (Percent Degradation: C ≤ 35)	–	C (Percent Degradation: C ≤ 35)	–
C=CC(=O)N1CCN(c2nc(O[C@H](C)CN3CCC(OCCOCCOc4cc([C@@H](C(=O)N5C[C@H](O)C[C@H]5C(=O)N[C@@H](C)c5ccc(-c6scnc6C)cc5)C(C)C)on4)CC3)nc3c(F)c(-c4cc(O)cc5ccccc45)c(Cl)cc23)CC1 [compound 526, (2S,4R)-1-((2S)-2-(3-(2-(2-((1-((2R)-2-((4-(4-acryloylpiperazin-1-yl)-6-chloro-8-fluoro-7-(3-hydroxynaphthalen-1-yl)quinazolin-2-yl)oxy)propyl)piperidin-4-yl)oxy)ethoxy)ethoxy)isoxazol-5-yl)-3-methylbutanoyl)-4-hydroxy-N-((S)-1-(4-(4-methylthiazol-5-yl)phenyl)ethyl)pyrrolidine-2-carboxamide]	–	C (Percent Degradation: C ≤ 35)	C (Percent Degradation: C ≤ 35)	–	C (Percent Degradation: C ≤ 35)	–
C=CC(=O)N1CCN(c2nc(O[C@H](C)CN3CCC(OCCOCCOc4cc([C@H](C(=O)N5C[C@H](O)C[C@H]5C(=O)N[C@@H](C)c5ccc(-c6scnc6C)cc5)C(C)C)on4)CC3)nc3c(F)c(-c4cc(O)cc5ccccc45)c(Cl)cc23)CC1 [compound 527, (2S,4R)-1-((2R)-2-(3-(2-(2-((1-((2R)-2-((4-(4-acryloylpiperazin-1-yl)-6-chloro-8-fluoro-7-(3-hydroxynaphthalen-1-yl)quinazolin-2-yl)oxy)propyl)piperidin-4-yl)oxy)ethoxy)ethoxy)isoxazol-5-yl)-3-methylbutanoyl)-4-hydroxy-N-((S)-1-(4-(4-methylthiazol-5-yl)phenyl)ethyl)pyrrolidine-2-carboxamide]	–	C (Percent Degradation: C ≤ 35)	C (Percent Degradation: C ≤ 35)	–	C (Percent Degradation: C ≤ 35)	–
